The first data set deals with T1, Enoyl-[acyl-carrier-protein] reductase [NADH] (Mycobacterium tuberculosis, UniProt P9WGR1).
T1 sequence (P9WGR1 whole entry): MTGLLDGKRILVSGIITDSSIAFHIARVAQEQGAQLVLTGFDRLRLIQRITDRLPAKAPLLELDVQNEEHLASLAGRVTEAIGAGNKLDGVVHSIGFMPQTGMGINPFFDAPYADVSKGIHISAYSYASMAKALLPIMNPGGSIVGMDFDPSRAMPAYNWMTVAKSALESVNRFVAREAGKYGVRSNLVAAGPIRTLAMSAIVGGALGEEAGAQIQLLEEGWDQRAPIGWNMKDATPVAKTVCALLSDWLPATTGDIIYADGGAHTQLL
Settings: not given
In general, IC50 refers to the concentration that gives 50% inhibition. In turn, `CCCCCCc1ccc(Oc2cccc(NC(C)=O)c2)c(O)c1` gave an IC50 of 579 nM.

System in the next data set: not listed separately
The data set can be described thus: Partition coefficient, log P of the compound. The data set is classed as physicochemical. The settings on record: octanol/water.
As usually defined, the logP is a log measure of how a compound divides between an organic and an aqueous phase. On to `CCCCCCc1ccc(Oc2ccc([N+](=O)[O-])cc2)c(O)c1`, for which the logP is on record as 4.489.
With `CCCCCCc1ccc(Oc2ccccc2[N+](=O)[O-])c(O)c1`, the logP worked out at 4.489.

The data set is the same for the next values; noted with them: octanol/water; read-out: logP.
Consider `CCCCCCc1ccc(Oc2ccccc2)c(O)c1`, for which the log partition coefficient (logP) was 5.64.
The same measure, in the same setting: under `CCCCCCc1ccc(Oc2ccccc2N)c(O)c1` stands 4.42.
On to `CCCCCCc1ccc(Oc2ccc(CN3CCN(C)CC3)cc2)c(O)c1`, for which the logP turned out to be 5.33.
Take `CCCCCCc1ccc(Oc2cccc(NC(C)=O)c2)c(O)c1`: the logP came out at 5.
Turning to `CCCCCCc1ccc(Oc2ccccn2)c(O)c1`, the logP amounted to 5.03.
On the same count and under the same terms, in the case of `CCCCCCc1ccc(Oc2ccc(NC(C)=O)cc2)c(O)c1` it was 5.
Regarding `CCCCCCc1ccc(Oc2ccccc2CN2CCN(C)CC2)c(O)c1`, the logP was 5.33.
With `CCCCCCc1ccc(Oc2cccc([N+](=O)[O-])c2)c(O)c1`, the logP worked out at 4.49.
For the molecule `CCCCCCc1ccc(Oc2ccc(N)cc2)c(O)c1`, the logP was determined as 4.42.
`CCCCCCc1ccc(Oc2cccc(NC(=O)c3ccno3)c2)c(O)c1`: the logP is 4.86.
Still for that read-out and setting: under `CCCCCCc1ccc(Oc2ccncc2)c(O)c1` stands 4.33.
For the molecule `CCCCCCc1ccc(Oc2ccccc2NC(=O)c2ccno2)c(O)c1`, the lipophilicity (logP) was found to be 4.86.
For `CCCCCCc1ccc(Oc2cnccn2)c(O)c1`, the logP was found to be 4.12.
Take `CCCCCCc1ccc(Oc2ccc(NC(=O)c3ccno3)cc2)c(O)c1`: the logP stood at 4.86.
Still for that read-out and setting: under `CCCCCCc1ccc(Oc2ccc(NC(=O)C(=O)O)cc2)c(O)c1` stands 5.59.
Regarding `CCCCCCc1ccc(Oc2cccc(N)c2)c(O)c1`, the log partition coefficient (logP) is 4.42.
In the case of `CCCCCCc1ccc(Oc2cccnc2)c(O)c1`, the lipophilicity (logP) was determined as 4.33.
Regarding `CCCCCCc1ccc(Oc2ncccn2)c(O)c1`, the lipophilicity (logP) came out at 4.13.
For `CCCCCCc1ccc(Oc2ccccc2NC(C)=O)c(O)c1`, the logP worked out at 5.

The record behind these values is ChEMBL document CHEMBL3044988, “QSAR analysis of B-ring-modified diaryl ether derivatives as a InhA inhibitors” (Med Chem Res, 2012).
